The term IC50 denotes the concentration that inhibits the measured activity by half.

This is an account of results in ChEMBL document CHEMBL6177986, “A Perspective on the Strategic Application of Deconstruction-Reconstruction in Drug Discovery” (J Med Chem, 2025).

Assay [1] deals with T1, Phosphatidylinositol 4,5-bisphosphate 3-kinase catalytic subunit delta isoform (Homo sapiens, UniProt O00329).
T1 sequence (O00329 whole entry): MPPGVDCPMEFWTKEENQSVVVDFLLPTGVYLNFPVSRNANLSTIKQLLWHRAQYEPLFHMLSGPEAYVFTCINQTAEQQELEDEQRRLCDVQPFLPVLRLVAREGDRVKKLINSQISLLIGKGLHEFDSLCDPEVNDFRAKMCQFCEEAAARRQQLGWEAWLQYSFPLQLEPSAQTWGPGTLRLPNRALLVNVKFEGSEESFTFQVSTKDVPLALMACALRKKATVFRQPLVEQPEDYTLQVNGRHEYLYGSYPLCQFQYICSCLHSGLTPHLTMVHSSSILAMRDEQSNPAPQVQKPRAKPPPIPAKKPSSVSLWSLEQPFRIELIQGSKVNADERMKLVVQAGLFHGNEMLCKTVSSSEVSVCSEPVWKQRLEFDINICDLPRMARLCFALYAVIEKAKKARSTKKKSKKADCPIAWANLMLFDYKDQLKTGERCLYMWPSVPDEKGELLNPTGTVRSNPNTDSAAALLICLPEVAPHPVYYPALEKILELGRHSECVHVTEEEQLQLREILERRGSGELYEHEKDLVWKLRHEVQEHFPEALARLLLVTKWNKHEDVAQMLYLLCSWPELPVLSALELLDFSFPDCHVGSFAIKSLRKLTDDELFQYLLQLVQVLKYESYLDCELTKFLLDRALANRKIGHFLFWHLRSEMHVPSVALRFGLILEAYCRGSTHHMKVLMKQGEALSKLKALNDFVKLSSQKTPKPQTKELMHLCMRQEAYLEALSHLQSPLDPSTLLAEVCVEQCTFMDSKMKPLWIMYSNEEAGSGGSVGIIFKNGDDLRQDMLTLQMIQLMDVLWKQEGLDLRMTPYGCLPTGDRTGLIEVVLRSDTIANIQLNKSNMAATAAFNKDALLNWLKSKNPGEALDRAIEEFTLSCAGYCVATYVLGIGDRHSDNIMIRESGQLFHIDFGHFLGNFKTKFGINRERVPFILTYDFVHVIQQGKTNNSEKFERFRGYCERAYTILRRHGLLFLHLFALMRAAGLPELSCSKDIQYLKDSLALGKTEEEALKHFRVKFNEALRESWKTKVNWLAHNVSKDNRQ
Put plainly: Inhibition of PI3Kdelta (unknown origin).

The target in assay [2] is Phosphatidylinositol 4,5-bisphosphate 3-kinase catalytic subunit alpha isoform (Homo sapiens, UniProt P42336). Put plainly: Inhibition of PI3Kalpha (unknown origin).
Assay [3] addresses Phosphatidylinositol 4,5-bisphosphate 3-kinase catalytic subunit beta isoform (Homo sapiens, UniProt P42338). Put plainly: Inhibition of PI3Kbeta (unknown origin).
In assay [4] the target is Phosphatidylinositol 4,5-bisphosphate 3-kinase catalytic subunit gamma isoform (Homo sapiens, UniProt P48736). Nature of the assay: Inhibition of PI3Kgamma (unknown origin).
Sequence of Phosphatidylinositol 4,5-bisphosphate 3-kinase catalytic subunit gamma isoform (P48736 whole entry, canonical isoform): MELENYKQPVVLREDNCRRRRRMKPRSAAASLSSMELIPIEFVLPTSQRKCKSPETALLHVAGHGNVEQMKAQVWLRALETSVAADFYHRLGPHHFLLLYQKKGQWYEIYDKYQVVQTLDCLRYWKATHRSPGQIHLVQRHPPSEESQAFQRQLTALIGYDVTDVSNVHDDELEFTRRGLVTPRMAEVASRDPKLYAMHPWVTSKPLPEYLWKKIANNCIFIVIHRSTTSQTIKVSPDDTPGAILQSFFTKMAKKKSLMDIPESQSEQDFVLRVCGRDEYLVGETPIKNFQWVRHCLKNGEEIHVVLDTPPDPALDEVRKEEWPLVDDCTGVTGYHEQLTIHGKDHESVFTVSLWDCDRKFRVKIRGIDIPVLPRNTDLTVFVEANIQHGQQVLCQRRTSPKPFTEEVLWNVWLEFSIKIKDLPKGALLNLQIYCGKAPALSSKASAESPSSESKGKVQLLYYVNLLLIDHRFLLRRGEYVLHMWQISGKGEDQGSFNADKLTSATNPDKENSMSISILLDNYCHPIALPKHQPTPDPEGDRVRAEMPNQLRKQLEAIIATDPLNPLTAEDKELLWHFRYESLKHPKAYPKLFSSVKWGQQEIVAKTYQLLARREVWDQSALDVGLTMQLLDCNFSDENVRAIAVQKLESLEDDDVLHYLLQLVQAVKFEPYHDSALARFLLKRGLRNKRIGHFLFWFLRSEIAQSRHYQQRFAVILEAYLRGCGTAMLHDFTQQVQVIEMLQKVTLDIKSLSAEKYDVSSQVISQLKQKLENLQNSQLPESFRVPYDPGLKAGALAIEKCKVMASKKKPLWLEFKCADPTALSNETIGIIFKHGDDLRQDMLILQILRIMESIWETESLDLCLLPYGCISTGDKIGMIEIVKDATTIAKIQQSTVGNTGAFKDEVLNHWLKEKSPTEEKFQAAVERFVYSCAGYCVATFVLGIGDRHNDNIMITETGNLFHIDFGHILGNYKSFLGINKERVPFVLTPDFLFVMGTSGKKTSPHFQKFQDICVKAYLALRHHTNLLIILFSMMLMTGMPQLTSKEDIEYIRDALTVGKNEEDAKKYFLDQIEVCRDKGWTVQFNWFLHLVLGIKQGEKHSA

Sequence of Phosphatidylinositol 4,5-bisphosphate 3-kinase catalytic subunit beta isoform (P42338 whole entry, canonical isoform): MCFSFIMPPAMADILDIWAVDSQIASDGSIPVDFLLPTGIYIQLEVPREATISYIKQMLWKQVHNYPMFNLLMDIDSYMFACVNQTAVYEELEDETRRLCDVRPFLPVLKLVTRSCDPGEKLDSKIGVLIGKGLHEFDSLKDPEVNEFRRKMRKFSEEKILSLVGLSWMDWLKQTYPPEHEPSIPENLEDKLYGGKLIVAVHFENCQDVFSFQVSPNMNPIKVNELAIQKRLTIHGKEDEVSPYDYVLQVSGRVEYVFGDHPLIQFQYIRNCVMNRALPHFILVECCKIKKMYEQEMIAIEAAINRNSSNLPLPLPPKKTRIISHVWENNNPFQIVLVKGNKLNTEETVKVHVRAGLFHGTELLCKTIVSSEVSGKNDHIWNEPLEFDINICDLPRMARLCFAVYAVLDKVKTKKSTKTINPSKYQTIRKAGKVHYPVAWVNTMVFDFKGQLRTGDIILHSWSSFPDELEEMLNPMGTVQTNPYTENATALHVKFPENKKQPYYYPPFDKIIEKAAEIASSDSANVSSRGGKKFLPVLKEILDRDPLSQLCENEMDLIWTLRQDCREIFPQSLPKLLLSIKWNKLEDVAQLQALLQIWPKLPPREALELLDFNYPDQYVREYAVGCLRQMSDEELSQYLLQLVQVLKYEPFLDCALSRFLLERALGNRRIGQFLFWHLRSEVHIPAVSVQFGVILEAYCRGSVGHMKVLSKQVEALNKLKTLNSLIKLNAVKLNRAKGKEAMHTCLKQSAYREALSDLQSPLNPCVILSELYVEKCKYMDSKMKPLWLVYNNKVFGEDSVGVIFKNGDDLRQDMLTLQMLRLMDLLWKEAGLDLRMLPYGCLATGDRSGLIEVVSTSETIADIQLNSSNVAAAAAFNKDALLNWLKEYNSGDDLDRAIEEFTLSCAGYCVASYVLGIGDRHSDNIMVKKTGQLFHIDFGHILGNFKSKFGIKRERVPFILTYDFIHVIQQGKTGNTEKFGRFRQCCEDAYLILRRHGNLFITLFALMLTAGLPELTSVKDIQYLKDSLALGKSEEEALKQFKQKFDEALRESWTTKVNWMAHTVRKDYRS
Sequence of Phosphatidylinositol 4,5-bisphosphate 3-kinase catalytic subunit alpha isoform (P42336 whole entry, canonical isoform): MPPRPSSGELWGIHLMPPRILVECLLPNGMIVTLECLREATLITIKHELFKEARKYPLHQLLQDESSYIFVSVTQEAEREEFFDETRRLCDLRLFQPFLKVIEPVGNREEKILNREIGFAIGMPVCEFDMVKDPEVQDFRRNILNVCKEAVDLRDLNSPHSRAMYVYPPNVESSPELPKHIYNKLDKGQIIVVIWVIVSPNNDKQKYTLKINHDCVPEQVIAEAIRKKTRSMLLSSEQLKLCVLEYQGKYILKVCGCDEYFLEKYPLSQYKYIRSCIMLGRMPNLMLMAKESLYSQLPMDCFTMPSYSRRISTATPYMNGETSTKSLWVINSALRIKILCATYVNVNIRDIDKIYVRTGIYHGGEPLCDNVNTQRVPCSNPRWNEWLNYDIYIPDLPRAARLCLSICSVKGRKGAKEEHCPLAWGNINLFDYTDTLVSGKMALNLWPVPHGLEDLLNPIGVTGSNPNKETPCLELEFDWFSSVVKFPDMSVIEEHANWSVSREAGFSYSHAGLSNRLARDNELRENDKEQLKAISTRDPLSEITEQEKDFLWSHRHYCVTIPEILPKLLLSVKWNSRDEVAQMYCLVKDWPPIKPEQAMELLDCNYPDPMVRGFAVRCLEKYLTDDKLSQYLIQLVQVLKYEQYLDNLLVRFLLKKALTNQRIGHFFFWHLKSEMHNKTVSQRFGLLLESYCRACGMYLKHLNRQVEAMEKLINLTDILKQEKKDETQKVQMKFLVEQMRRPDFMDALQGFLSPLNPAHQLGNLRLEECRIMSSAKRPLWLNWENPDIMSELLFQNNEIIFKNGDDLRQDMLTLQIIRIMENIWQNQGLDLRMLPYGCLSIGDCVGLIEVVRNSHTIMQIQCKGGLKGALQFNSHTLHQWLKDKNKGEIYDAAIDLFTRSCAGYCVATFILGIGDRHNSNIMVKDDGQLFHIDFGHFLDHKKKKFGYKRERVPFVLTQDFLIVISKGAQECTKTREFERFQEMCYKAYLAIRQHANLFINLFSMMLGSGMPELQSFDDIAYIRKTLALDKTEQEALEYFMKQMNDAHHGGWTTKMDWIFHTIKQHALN

`COc1ncc(C2=CCOCC2)cc1NS(=O)(=O)c1cn(Cc2ccccc2)c(C)n1` came in with an IC50 in assay [1] of 6 nM. In other words, the single-digit nanomolar range.
On to `COc1ncc(-c2ccc3ccncc3c2)cc1NS(C)(=O)=O`, for which the IC50 stood at 160 nM in assay [1], 2.5 µM in assay [2], 2500 nM in assay [3] and 790 nM in assay [4].
`c1cc(-c2ccc3ccncc3c2)c2cc[nH]c2c1`: the IC50 in assay [2] is over 32 µM.
As for `c1cc(-c2ccncc2)c2cc[nH]c2c1`, the IC50 in assay [2] was over 50 µM; in assay [3], over 50000 nM; in assay [4], over 50000 nM.
Turning to `COc1ncc(-c2ccncc2)cc1NS(C)(=O)=O`, the IC50 was 250 nM in assay [1], 6.3 µM in assay [2], 790 nM in assay [3] and 2500 nM in assay [4].
